Key:
[1] = Rat PK test (liver concentrations of active metabolites after oral prodrug); type: in vivo, Wistar rat
Procedure: The test was carried out according to the following protocol. • Animal: […] (Method of Analysis) Using LC-MS/MS (API 4000), standard curves for standard compounds were prepared, and the concentrations of the active metabolites No. 5514403 and No. 5526064 at the data points were calculated.

CYP2C9 = CYP2C9 (Homo sapiens (Human), UniProt P11712); assay: biochemical; conditions: for IC50: human liver microsomes, diclofenac 0.2 μmol/L; for TDI Ratio, CYP2C9: microsomes
CYP2C9, sequence (P11712 whole entry): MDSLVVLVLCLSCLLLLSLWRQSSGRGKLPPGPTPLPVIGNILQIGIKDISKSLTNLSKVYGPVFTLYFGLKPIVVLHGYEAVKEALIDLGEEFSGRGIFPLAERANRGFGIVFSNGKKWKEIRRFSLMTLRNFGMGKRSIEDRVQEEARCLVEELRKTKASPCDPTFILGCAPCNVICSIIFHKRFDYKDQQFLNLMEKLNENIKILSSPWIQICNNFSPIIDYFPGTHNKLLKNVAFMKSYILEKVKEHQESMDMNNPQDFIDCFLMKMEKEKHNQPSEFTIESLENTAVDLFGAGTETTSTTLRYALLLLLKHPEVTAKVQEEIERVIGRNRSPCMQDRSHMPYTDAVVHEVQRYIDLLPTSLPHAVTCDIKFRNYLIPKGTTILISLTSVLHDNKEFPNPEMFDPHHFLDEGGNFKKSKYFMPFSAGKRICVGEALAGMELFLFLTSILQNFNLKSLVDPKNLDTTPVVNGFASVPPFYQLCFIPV
Procedure: Tests were carried out according to the following experiment method.
(§1) <Incubation Mixture> • 100 mM phosphate buffer (pH 7.4) • 0.1 mg/mL of pooled human liver microsomes (male and female mixture, a pool of 50 donors) <NADPH Aqueous Solution> • 10 mM NADPH (final concentration 1 mM NADPH) <Measurement of Metabolite>
After incubation, the concentrations of the produced metabolites were measured using LC-MS/MS (API4000 or 5500QTRAP). Warfarin was used as internal standard (IS). The concentration was calculated using a standard curve created using a metabolite standard solution.
(§2) To a 96 deep well plate was added 2.5 μL, of the test substance solution (×200 concentration), 442.5 μL of Incubation Mixture, and 5 μL of the substrate solution, and the solution was mixed and warmed to 37° C. for 5 minutes. To this incubation solution 50 μL of 10 mM NADPH was added to start the reaction, and incubated at 37° C. for 5 minutes. After the incubation, 100 μL of the Incubation Mixture was removed, added to 150 μL of isopropanol containing IS and mixed. This mixture was transferred onto a multi-screen filter, centrifuged at 500×g at 4° C. for 10 minutes. The filtrate was used for LC-MS/MS analysis.
To a 96 deep well plate was added 2.5 μL of the test substance solution (×200 concentration), and 442.5 μL of Incubation Mixture, and the solution was mixed and warmed to 37° C. for 5 minutes. To this incubation solution 50 μL of 10 mM NADPH was added and preincubated at 37° C. for 30 minutes. After the preincubation, 5 μL of the substrate solution was added and the solution was mixed and further incubated at 37° C. for 5 minutes for the reaction. After the reaction, 100 μL of the Incubation Mixture was removed, added to 150 μL of isopropanol containing IS and mixed. This mixture was transferred onto a multi-screen filter, centrifuged at 500×g at 4° C. for 10 minutes. The filtrate was used for LC-MS/MS analysis.
(§3) Based on the metabolite production of the DMSO control group defined as 100, percent inhibitions of the metabolite production in the test substance group were determined, and inhibition curves were plotted at 5 concentrations. The test substance concentration showing 50% inhibition (IC50) was determined from the fitting curve of the inhibition curve.
Time dependent inhibition (TDI) was calculated as a ratio of dividing IC50 of the sample without preincubation treatment by the IC50 value measured after the preincubation treatment.

CYP3A4 = CYP3A4 (Homo sapiens (Human), UniProt P08684); assay: biochemical; type: in vitro ADME; conditions: for IC50: human liver microsomes, midazolam 0.5 μmol/L; for CYP Inhibition Time Dependent (TDI) (untreated/Pre-incubation), CYP3A4: microsomes
CYP3A4, sequence (P08684 whole entry): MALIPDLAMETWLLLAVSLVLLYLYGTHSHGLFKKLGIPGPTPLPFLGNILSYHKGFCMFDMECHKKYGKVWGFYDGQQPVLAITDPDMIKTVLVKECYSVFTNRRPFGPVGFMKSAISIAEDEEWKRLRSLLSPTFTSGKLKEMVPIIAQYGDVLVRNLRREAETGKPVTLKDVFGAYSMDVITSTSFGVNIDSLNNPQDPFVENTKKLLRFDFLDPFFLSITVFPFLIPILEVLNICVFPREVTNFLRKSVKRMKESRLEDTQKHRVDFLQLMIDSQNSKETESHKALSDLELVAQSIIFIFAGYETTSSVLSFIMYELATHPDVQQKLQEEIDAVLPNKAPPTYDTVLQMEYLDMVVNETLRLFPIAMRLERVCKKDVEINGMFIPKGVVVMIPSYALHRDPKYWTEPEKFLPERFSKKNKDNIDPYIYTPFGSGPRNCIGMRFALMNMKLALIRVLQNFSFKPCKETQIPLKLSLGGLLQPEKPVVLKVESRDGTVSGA
Procedure: as §1
Warfarin was used as internal standard (IS).
as §2, with “This mixture was transferred onto a multi-screen filter, centrifuged at 500×g at 4° C. for 10 minutes.” left out
To a 96 deep well plate was added 2.5 μL of the test substance solution (×200 concentration), and 442.5 μL of Incubation Mixture, and the solution was mixed and warmed to 37° C. for 5 minutes. To this incubation solution 50 μL of 10 mM NADPH was added and preincubated at 37° C. for 30 minutes. […] After the reaction, 100 μL of the Incubation Mixture was removed, added to 150 μL of isopropanol containing IS and mixed. […] The filtrate was used for LC-MS/MS analysis.
as §3

[2] = test system: firefly luciferase HCV replicon cells (Huh3-1); assay: Replicon assay (firefly luciferase HCV replicon cells); type: cell-based, Hepatitis C virus; conditions: for IC50: Hepatitis C virus, 72 h, Huh3-1 replicon cells, 3 days culture, luciferase readout, read-out: Anti-replicon Activity (IC50); for IC50 of antireplicon activity converted to: unit converted assuming liver specific gravity 1 g=1 mL (FIGS. 1 to 3)
Description: As a reporter gene, for example, a gene into which a luciferase gene derived from a firefly is introduced can be used. Specifically, according to the method of Krieger et al. (N. Krieger et al., J. Virology: 75, 4614-24, 2001), a firefly luciferase gene is introduced, in a form fused with a neomycin-resistant gene, immediately downstream of an internal ribosome entry site (IRES) of the HCV gene. After synthesizing the RNA in vitro, it is introduced into suitable cells by, for example, electroporation to obtain firefly luciferase HCV replicon cells. These cells are seeded in wells of 96-well plates, to which a diluted test substance is added, and cultured for several days. The substrate is then added, and the luminescence is measured with a plate reader.
According to the method of Krieger et al. (N. Krieger et al., J. Virology: 75, 4614-24, 2001), a firefly luciferase gene was introduced, in a form fused with a neomycin-resistant gene, immediately downstream of an internal ribosome entry site (TRES) of the HCV gene. After synthesizing the RNA in vitro, it was introduced into Huh7 cells by electroporation and the cells were isolated as G418-resistant clones.
After culturing, the white plates were used for the replicon assay with Steady-Glo Luciferase Assay System (Promega cat. No. E2520). More specifically, 100 μL per well of the reagent was added, it was mixed 3-4 times by pipetting and allowed to stand for 5 minutes, and subsequently the luminescence was measured with a plate reader (EnVision™ 2103 Multilabel Reader).

[3] = Cytotoxicity test (WST-8); type: cell-based; conditions: human, firefly luciferase HCV replicon cells (Huh3-1); Huh3-1 replicon cells, 3 days culture, Cell counting kit-8; read-out: Cytotoxicity WST8 (IC50)
Procedure: The firefly luciferase HCV replicon cells (Huh3-1) were suspended in Dulbecco's MEM (Gibco cat. No. 10,569-010) containing 5% fetal bovine serum (Hyclone cat. No. SH30071.03), seeded at 4500 cells/90 μL/well in 96-well plates, and cultured overnight in 5% CO2 at 37° C. After 20 hours, 10 μL per well of compounds prepared at a concentration 10 times the final concentration were added, and they were further cultured for 3 days.
Two series of assay plates, one series of white plates and another series of clear plates, were prepared and used for the assay.
Clear plates were used for a cytotoxicity test (WST-8). Cytotoxicity was measured using Cell counting kit-8 (Dojindo cat. No. CK04). More specifically, 100 μL of Cell counting kit-8 diluted 10-fold from the stock solution with PBS (SIGMA cat. No. D8537) was added to each well in the aforementioned clear plates from which medium was removed and the plates were incubated at 37° C. for 30 to 60 minutes. Absorbance was measured at a wavelength of 460 nm and a control wavelength of 590 nm by a plate reader (EnVision™ 2103 Multilabel Reader). All values were expressed as differences from the background which was measured with neither cells nor drug and IC50 (50% inhibitory concentration) values of drugs were calculated based on the value when no drug was added defined as 0% inhibition.

[4] = rat liver, prodrug p.o. 30 mg/kg once a day, 7 days
[5] = CYP2C9 (IC50 μM) Pre-incubation, 30 min preincubation with NADPH
[6] = CYP2C9 (IC50 μM) untreated, without preincubation
[7] = CYP3A4 (IC50 μM) Pre-incubation, 30 min preincubation with NADPH
[8] = CYP3A4 (IC50 μM) untreated, without preincubation
[9] = rat liver, 24 hours after dosing, prodrug p.o. 30 mg/kg once a day, 7 days

Row | Structure (SMILES) | presence of the active compound No. 5514403 in the liver [1, 4] | IC50 (CYP2C9; [5]) [µM] | IC50 (CYP2C9; [6]) [µM] | TDI Ratio, CYP2C9 (CYP2C9) | IC50 (CYP3A4; [7]) [µM] | IC50 (CYP3A4; [8]) [µM] | CYP Inhibition Time Dependent (TDI) (untreated/Pre-incubation), CYP3A4 (CYP3A4) | IC50 [2] [µM] | IC50 of antireplicon activity converted to [2] [ng/g] | IC50 at 3 days [3] [µM] | concentration of active compound No. 5514403 in the liver [1, 9] [ng/g] | concentration of active metabolite No. 5526064 in the liver [1, 9] [ng/g] | exposure of the liver to the active drugs ([1]; rat, p.o., in comparison with No. 6809532 and No. 6811559)
1 | CCCCCCCC(F)(F)CCCCCC/C=C/[C@H](C(=O)N[C@@H](Cc1ccc(OCCCC)cc1)C(=O)OC)[C@@](O)(CCOC)C(=O)OC [No. 6809532, Methyl (E)-(2S,3S)-3-[(S)-2-(4-butoxy-phenyl)-1-methoxycarbonyl-ethylcarbamoyl]-12,12-difluoro-2-hydroxy-2-(2-methoxy-ethyl)-nonadec-4-enoate, reference compound] | hardly detected |  |  |  |  |  |  |  |  |  |  |  | 
2 | CCCCCCCC(F)(F)CCCCCC/C=C/[C@H](C(=O)N[C@@H](Cc1ccc(OCCCC)cc1)C(=O)OC)[C@@](O)(CCOC)C(=O)OCC(=O)OC [No. 6811559, Methoxycarbonylmethyl (E)-(2S,3S)-3-[(S)-2-(4-butoxy-phenyl)-1-methoxycarbonyl-ethylcarbamoyl]-12,12-difluoro-2-hydroxy-2-(2-methoxy-ethyl)-nonadec-4-enoate, reference compound] | hardly detected |  |  |  |  |  |  |  |  |  |  |  | 
3 | CCCCCCCC(F)(F)CCCCCC/C=C/[C@H](C(=O)N[C@@H](Cc1ccc(OCCCC)cc1)C(=O)O)[C@@](O)(CCOC)C(=O)O [No. 5526064, (E)-(2S,3S)-3-[(S)-2-(4-butoxy-phenyl)-1-carboxy-ethylcarbamoyl]-12,12-difluoro-2-hydroxy-2-(2-methoxy-ethyl)-nonadec-4-enoic acid] |  | 24.4 | 12.5 | 0.51 | 11.8 | 16.2 | 1.37 | 0.00215 | 1.44 | > 1 |  |  | 
4 | CCCCCCCC(F)(F)CCCCCC/C=C/[C@H](C(=O)N[C@@H](Cc1ccc(OCCCC)cc1)C(=O)OC)[C@@](O)(CCOC)C(=O)O [No. 5514403, (E)-(2S,3S)-3-[(S)-2-(4-butoxy-phenyl)-1-methoxycarbonyl-ethylcarbamoyl]-12,12-difluoro-2-hydroxy-2-(2-methoxy-ethyl)-nonadec-4-enoic acid] |  | 19.6 | 7.7 | 0.39 | 11.9 | 23.8 | 1.98 | 0.0006 | 0.48 | > 1 |  |  | 
5 | CCCCCCCC(F)(F)CCCCCC/C=C/[C@H](C(=O)N[C@@H](Cc1ccc(OCCCC)cc1)C(=O)OC)[C@@](O)(CCOC)C(=O)OCc1oc(=O)oc1C [No. 6808755, (5-methyl-2-oxo-[1,3]dioxol-4-yl)methyl (E)-(2S,3S)-3-[(S)-2-(4-butoxy-phenyl)-1-methoxycarbonyl-ethylcarbamoyl]-12,12-difluoro-2-hydroxy-2-(2-methoxy-ethyl)-nonadec-4-enoate] |  |  |  |  |  |  |  |  |  |  | ≥ 100 | ≥ 100 | significantly higher exposure of the liver to the active drugs
